Assay results published in ChEMBL document CHEMBL1130398 (J Med Chem, 1997).

Columns and labels:
[1] = biological target: T1, Cholinesterase (Homo sapiens, UniProt P06276)
Description: In vitro inhibition of Butyrylcholinesterase from human plasma.

[2] = biological target: T2, Acetylcholinesterase (Rattus norvegicus, UniProt P37136)
T2 sequence (P37136 whole entry): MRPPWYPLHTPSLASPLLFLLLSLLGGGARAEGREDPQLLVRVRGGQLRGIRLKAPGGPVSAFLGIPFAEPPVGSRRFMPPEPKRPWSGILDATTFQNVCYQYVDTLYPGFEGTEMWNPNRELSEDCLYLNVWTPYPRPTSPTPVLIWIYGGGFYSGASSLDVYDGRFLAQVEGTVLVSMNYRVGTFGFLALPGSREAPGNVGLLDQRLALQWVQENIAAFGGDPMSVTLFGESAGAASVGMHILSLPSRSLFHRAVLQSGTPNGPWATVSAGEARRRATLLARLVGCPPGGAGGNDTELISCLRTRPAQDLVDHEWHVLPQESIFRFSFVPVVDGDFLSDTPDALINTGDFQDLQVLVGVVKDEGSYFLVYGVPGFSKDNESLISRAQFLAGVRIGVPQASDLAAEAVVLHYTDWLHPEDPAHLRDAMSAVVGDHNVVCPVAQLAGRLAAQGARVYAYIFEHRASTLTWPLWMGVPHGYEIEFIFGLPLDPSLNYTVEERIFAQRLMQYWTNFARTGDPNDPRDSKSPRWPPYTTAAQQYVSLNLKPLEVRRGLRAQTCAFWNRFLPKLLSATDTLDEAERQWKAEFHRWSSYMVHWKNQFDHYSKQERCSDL
Description: In vitro inhibition of acetylcholinesterase, isolated from rat brain.

[3] = biological target: Sodium-dependent serotonin transporter (Rattus norvegicus, UniProt P31652)
Sequence of Sodium-dependent serotonin transporter (P31652 whole entry): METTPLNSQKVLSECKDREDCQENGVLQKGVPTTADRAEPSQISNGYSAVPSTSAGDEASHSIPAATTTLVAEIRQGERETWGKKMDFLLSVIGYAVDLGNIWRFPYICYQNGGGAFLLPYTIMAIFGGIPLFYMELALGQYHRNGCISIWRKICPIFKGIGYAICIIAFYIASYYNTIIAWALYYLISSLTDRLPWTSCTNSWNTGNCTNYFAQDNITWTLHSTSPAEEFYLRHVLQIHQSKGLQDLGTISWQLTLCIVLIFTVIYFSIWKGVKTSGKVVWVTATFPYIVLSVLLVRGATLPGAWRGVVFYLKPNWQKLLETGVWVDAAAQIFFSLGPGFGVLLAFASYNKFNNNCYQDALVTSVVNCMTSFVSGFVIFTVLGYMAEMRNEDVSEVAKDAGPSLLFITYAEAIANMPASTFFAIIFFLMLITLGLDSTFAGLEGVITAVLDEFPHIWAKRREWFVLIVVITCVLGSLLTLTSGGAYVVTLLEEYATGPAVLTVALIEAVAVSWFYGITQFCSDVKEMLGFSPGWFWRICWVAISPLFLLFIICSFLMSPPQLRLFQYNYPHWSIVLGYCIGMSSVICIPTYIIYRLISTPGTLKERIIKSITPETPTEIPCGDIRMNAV

[4] = biological target: Norepinephrine transporter (Rattus norvegicus, UniProt Q9WTR4)
Sequence of Norepinephrine transporter (Q9WTR4 whole entry): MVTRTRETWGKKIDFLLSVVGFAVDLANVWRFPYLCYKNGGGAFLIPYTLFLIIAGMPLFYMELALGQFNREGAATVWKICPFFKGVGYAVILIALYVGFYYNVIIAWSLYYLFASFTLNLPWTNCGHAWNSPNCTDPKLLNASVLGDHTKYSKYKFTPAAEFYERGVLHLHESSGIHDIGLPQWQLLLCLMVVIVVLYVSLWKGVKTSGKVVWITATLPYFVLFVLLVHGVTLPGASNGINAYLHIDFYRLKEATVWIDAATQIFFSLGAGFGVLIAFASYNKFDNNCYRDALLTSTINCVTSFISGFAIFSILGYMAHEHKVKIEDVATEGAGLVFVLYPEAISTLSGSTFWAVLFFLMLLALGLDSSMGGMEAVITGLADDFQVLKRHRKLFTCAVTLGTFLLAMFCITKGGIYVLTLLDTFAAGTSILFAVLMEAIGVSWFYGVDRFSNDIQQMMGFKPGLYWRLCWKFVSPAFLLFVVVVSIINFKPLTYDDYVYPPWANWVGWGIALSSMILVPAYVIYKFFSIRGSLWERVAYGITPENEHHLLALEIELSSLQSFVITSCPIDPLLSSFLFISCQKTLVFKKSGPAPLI
Description: Inhibition of neuronal uptake of Noradrenaline in rat brain homogenate

[5] = biological target: T2, Acetylcholinesterase; test: Inhibitory activity against acetylcholinesterase, isolated from rat brain at 100 uM; No block
[6] = biological target: T1, Cholinesterase; test: Activity against Butyrylcholinesterase (BChE) from human plasma at 100 uM; No block; type: cell-free
[7] = biological target: T1, Cholinesterase; test: Activity against Butyrylcholinesterase (BChE) from human plasma at 100 uM; no block; type: cell-free

T1 sequence (P06276 whole entry): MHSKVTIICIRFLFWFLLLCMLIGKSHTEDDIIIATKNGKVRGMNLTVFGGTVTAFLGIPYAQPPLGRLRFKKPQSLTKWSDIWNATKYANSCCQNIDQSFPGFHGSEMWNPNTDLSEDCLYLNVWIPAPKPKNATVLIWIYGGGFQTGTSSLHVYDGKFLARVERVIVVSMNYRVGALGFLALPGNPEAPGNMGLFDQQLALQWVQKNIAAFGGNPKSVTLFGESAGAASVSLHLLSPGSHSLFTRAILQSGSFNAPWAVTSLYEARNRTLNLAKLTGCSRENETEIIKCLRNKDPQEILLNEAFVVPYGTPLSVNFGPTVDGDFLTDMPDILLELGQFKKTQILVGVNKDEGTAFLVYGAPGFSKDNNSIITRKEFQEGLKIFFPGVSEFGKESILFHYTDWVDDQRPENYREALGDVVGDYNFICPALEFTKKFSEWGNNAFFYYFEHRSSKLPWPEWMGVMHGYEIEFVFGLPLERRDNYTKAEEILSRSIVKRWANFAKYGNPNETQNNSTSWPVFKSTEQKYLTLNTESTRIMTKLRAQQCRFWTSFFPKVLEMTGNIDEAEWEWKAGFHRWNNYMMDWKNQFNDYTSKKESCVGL

Row | SMILES | IC50 [1] [µM] | IC50 [2] [µM] | IC50 [3] [µM] | IC50 [4] [µM] | IC50 [5] | IC50 [6] | IC50 [7]
1 | CC1Cc2c(nc3ccccc3c2N)C1(C)O (centres undefined) | 12.2 | 134 | 4.4 |  |  |  | 
2 | Nc1c2c(nc3ccccc13)-c1ccccc1NCC2 | 18.9 | 69.4 | 4.2 | 3 |  |  | 
3 | Nc1c2ccccc2nc2c1cnc1cc(Cl)ccc12 |  |  | > 95 | 0.2 | No block | No block | 
4 | COc1ccc2c(c1)CCc1c-2nc2ccccc2c1N |  | 47.5 | 5.8 | 1.4 |  |  | no block
5 | Nc1c2c(nc3ccccc13)CCCc1ccccc1-2 | 26.4 |  | 0.02 |  |  |  | 
6 | Nc1c2c(nc3ccccc13)CCC2 | 0.052 |  | 21 | 0.6 |  |  | 
7 | Nc1c2c(nc3ccccc13)CCCCCC2 | 2.3 |  | 1.1 | 0.8 |  |  | 
8 | CCCCC1=C(C)Cc2c1nc1ccccc1c2N | 42 | 25 | 13 |  |  |  | 
9 | CC1=C(C)c2nc3ccccc3c(N)c2C1 | 5.9 | 3.5 | 5.1 |  |  |  | 
10 | CCCCC1(O)c2nc3ccccc3c(N)c2CC1C (centres undefined) | 81 | 91 | 7.1 | 12 |  |  | 
11 | COc1ccc2c(c1)CCCc1c-2nc2ccccc2c1N | > 100 |  | 0.7 | 3.6 |  |  | 
12 | Nc1c2c(nc3ccccc13)-c1ccccc1NCCC2 | 6.7 | 391 | 6.9 | 2.5 |  |  | 
13 | Nc1c2c(nc3ccccc13)CCCCC2 | 0.014 | 0.039 | 3.6 | 6.9 |  |  | 
14 | CC12CCC(c3c1nc1ccccc1c3N)C2(C)C (centres undefined) | 88 | 110 | 13 |  |  |  | 
15 | Nc1c2c(nc3ccccc13)-c1ccccc1CCC2 | 36 | 166 | 4.7 | 1.8 |  |  | 
16 | Nc1c2c(nc3ccccc13)-c1cccc(Cl)c1CC2 | 10.3 | 144 | 14.3 | 41 |  |  | 
17 | Nc1c2c(nc3ccccc13)C1CCC2C1 (centres undefined) | 0.041 |  | 0.2 | 6.1 |  |  | 
18 | Nc1c2c(nc3ccccc13)-c1ccccc1C2 | 3.1 |  | 2.2 | 2.3 |  |  | 
19 | Nc1c2c(nc3ccccc13)-c1ccccc1CC2 | 3.3 |  | 4.6 | 12.1 |  |  | 
